In patent US11905294B2, “Imidazo[1,5-a]pyrazine derivatives as PI3Kδ inhibitors” (BEIGENE, LTD., priority 2017, dated 2024):
pIC50: −log10 of the molar value. Where two headings read alike, the source gives them in different places.

Key:
Format in all cases: biochemical
[1] = biological target: PI3K (p110γ) (Homo sapiens, UniProt P48736); assay: PI3Kγ assay (ADP-Glo Kinase Assay); details: recombinant enzyme; IC50 (nM) or max inhibition (%) at 0.5 μM
[2] = biological target: PI3K (p110α/p85α) (Homo sapiens, UniProt P42336); assay: PI3Kα assay (ADP-Glo Kinase Assay); details: recombinant enzyme; IC50 (nM) or max inhibition (%) at 0.5 μM
[3] = biological target: PI3K (p110δ/p85α) (Homo sapiens, UniProt O00329); assay: PI3Kδ assay (ADP-Glo Kinase Assay); details: recombinant enzyme; IC50 (nM) or max inhibition (%) at 0.5 μM
Procedure: Compounds disclosed herein were tested for inhibition of PI3Kδ kinase activity using commercial ADP-Glo™ Kinase Assay (Promega Corporation) and following the manufacture's instruction. Briefly, recombinant PI3K (p110δ/p85α) enzyme, lipid kinase substrate and a serial dilution of compounds disclosed herein were incubated for 0.5 hr at room temperature. ATP was added to initiate the kinase reaction. After incubation for 1 hr at room temperature, ADP-Glo™ reagent was added to terminate the kinase reaction and deplete the remaining ATP. After incubation for 1 hr at room temperature, kinase detection reagent was added to simultaneously convert ADP to ATP and allow the newly synthesized ATP to be measured using a luciferase/luciferin reaction. After incubation for 0.5 hr at room temperature, the luminescence generated was measured on a PHERAstar FS plate reader (BMG LABTECH). The residual enzyme activity in presence of increasing concentrations of compounds was calculated based on the luminescence. The IC50 for each compound was derived from fitting the data to the four-parameter logistic equation by Graphpad Prism software.

[4] = biological target: PI3K (p110β/p85α) (Homo sapiens, UniProt P42338); assay: PI3Kβ assay (ADP-Glo Kinase Assay); details: for pIC50: read-out: Enzyme activity IC50 PI3Kβ
Chain of PI3K (p110β/p85α) (P42338 whole entry): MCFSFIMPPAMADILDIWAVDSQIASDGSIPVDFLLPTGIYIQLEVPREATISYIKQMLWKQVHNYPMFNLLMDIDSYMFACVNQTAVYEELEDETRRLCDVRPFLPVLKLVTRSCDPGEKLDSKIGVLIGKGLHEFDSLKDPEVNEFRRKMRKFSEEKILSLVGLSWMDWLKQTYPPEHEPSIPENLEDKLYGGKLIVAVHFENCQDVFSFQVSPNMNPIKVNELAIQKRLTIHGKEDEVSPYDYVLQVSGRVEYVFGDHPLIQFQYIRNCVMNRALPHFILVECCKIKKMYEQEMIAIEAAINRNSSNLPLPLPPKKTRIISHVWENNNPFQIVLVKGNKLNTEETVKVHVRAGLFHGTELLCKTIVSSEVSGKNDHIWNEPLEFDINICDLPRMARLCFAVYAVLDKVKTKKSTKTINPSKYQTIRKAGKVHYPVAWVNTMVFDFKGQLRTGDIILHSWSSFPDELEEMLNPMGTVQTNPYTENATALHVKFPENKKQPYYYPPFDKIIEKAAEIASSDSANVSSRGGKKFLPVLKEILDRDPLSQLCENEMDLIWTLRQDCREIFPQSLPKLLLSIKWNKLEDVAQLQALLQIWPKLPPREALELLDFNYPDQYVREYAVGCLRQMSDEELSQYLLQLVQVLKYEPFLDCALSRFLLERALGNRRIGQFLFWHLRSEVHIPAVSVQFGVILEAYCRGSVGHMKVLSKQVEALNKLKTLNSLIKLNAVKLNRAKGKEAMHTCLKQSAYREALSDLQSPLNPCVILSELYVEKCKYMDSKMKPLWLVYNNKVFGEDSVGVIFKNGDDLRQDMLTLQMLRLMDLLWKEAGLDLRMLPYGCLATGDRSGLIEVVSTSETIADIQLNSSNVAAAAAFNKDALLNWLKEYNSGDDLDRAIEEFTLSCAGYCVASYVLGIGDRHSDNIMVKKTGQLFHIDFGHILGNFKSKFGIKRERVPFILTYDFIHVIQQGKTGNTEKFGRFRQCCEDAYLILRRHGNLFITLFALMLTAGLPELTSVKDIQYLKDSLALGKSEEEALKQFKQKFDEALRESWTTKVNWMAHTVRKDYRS
Chain of PI3K (p110β/p85α) (P27986 whole entry partner): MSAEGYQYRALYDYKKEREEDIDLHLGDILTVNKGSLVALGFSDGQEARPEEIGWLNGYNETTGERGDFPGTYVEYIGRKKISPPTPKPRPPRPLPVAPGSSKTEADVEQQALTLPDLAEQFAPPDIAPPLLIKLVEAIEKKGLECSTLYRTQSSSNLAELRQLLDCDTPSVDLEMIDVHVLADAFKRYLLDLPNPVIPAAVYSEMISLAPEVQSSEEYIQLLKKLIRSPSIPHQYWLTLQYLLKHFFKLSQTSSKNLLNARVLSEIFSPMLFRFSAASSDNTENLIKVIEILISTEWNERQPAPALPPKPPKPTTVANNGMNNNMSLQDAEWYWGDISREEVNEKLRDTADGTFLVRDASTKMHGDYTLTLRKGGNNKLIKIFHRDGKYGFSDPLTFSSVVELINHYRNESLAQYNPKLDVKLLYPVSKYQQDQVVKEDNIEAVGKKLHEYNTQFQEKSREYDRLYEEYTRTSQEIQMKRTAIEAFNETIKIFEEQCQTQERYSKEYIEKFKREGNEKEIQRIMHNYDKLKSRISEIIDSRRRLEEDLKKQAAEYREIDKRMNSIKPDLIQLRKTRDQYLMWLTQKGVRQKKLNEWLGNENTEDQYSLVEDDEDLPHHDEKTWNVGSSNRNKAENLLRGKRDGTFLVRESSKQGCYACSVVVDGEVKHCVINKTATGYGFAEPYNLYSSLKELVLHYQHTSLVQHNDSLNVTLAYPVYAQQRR

Chain of PI3K (p110γ) (P48736 whole entry): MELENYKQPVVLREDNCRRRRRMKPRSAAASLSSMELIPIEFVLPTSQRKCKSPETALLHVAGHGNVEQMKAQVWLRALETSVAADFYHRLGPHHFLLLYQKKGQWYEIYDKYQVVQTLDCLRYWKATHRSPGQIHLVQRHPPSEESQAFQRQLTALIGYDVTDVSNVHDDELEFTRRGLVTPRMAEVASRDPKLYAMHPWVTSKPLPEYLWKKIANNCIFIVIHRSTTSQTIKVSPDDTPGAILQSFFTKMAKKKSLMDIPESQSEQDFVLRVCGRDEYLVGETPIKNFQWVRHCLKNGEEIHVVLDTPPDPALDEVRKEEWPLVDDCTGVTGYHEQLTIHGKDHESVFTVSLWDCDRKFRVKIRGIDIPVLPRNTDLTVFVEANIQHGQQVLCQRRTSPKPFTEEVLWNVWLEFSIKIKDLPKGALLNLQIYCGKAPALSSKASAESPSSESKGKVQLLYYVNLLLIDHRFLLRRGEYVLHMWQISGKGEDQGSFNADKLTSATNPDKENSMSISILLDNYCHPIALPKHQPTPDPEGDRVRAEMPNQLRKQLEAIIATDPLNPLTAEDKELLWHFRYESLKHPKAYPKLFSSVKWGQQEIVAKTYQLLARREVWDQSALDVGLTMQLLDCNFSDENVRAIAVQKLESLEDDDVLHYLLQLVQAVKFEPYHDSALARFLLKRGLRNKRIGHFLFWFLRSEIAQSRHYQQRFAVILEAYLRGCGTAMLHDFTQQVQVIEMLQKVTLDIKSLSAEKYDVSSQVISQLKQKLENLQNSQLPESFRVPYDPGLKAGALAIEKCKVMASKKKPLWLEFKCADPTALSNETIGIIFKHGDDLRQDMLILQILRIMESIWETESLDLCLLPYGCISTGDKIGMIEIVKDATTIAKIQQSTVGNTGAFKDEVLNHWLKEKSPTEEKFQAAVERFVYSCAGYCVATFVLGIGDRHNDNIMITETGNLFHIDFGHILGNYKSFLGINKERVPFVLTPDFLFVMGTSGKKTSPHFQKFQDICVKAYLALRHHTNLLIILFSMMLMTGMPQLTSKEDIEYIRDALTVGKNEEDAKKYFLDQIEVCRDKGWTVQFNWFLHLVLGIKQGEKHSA
Chain of PI3K (p110α/p85α) (P42336 whole entry): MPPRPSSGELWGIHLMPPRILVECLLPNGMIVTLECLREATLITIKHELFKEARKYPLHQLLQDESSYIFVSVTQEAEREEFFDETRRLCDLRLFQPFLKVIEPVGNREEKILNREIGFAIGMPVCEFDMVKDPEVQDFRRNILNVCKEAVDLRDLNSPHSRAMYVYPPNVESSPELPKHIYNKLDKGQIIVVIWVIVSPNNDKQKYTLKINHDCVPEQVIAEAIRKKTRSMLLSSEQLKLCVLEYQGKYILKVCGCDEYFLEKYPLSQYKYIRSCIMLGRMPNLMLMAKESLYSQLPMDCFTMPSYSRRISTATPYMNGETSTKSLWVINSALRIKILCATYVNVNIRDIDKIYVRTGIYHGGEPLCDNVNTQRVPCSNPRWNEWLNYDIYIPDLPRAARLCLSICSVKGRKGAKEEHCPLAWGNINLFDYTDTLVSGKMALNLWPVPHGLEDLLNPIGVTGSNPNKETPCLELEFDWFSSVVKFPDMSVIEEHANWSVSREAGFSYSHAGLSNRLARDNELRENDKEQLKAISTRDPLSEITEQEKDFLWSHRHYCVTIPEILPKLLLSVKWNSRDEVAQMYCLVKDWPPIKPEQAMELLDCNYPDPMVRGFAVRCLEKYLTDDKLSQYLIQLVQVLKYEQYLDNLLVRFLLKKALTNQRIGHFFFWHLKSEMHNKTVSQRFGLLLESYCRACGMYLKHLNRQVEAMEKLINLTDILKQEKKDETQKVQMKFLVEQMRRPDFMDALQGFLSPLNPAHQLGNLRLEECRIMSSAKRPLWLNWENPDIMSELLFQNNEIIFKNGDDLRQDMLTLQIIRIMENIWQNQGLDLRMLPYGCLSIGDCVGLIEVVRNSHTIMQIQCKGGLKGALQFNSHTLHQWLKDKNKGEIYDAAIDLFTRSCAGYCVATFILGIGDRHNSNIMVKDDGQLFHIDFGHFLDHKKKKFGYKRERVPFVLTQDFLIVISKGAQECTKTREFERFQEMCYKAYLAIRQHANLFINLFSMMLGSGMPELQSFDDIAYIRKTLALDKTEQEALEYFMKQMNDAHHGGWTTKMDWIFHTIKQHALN
Chain of PI3K (p110α/p85α) (P27986 whole entry partner): as the sequence (P27986 whole entry partner) above
Chain of PI3K (p110δ/p85α) (O00329 whole entry): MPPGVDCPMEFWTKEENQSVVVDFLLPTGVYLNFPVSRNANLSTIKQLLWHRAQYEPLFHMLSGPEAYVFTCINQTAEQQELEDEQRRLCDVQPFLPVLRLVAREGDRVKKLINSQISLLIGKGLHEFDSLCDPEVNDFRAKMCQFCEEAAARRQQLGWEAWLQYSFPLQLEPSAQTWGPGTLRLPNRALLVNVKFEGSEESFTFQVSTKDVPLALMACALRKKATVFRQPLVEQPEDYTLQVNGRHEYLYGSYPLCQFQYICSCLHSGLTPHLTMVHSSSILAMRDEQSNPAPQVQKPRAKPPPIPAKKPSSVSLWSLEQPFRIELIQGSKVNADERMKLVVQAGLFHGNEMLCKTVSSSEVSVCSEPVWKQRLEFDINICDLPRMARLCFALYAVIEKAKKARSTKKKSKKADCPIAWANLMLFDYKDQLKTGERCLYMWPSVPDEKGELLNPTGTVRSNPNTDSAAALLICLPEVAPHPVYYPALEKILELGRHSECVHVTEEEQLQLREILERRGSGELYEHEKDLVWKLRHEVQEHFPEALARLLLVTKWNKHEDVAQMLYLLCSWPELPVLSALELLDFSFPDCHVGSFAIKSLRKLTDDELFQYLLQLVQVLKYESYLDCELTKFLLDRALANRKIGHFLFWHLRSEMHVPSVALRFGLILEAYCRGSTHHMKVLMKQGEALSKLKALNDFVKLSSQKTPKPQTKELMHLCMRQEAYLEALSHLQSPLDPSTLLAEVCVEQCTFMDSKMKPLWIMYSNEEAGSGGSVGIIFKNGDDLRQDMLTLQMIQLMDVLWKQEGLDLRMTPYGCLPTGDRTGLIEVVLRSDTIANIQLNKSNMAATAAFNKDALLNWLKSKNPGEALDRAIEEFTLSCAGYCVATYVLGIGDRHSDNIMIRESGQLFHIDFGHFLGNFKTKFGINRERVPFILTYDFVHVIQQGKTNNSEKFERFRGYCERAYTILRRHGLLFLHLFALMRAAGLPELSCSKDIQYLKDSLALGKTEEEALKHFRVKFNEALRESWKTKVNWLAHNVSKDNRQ
Chain of PI3K (p110δ/p85α) (P27986 whole entry partner): as the sequence (P27986 whole entry partner) above

Row | Compound | IC50 [1] | IC50 [2] | IC50 [3] | pIC50 [4] | IC50 ([4]; recombinant enzyme, 2 hrs kinase reaction, IC50 (nM) or max inhibition (%) at 0.5 μM)
1 | Cc1nc(C(C)c2cc(Cl)c(F)c(C(=O)Nc3ccccc3)c2OC(C)C)n2ccnc(N)c12 (stereo not shown) [Compound 12, 3-(1-(8-amino-1-methylimidazo[1,5-a]pyrazin-3-yl)ethyl)-5-chloro-6-fluoro-2-isopropoxy-N-phenylbenzamide] | 14000 nM | > 50000 nM | 3.7 nM | < 4.30 | –
2 | Cc1nc([C@@H](C)c2cc(Cl)c(F)c(C(=O)N[C@H]3CCCOC3)c2OC(C)C)n2ccnc(N)c12 [Compound 45, 3-((S)-1-(8-amino-1-methylimidazol[1,5-a]pyrazin-3-yl)ethyl)-5-chloro-6-fluoro-2-isopropoxy-N-((S)-tetrahydro-2H-pyran-3-yl)benzamide] | 2800 nM | 16000 nM | 1.1 nM | 4.49 | –
3 | CCOCC1(NC(=O)c2c(F)c(Cl)cc([C@H](C)c3nc(C)c4c(N)nccn34)c2OC(C)C)CC1 [Compound 15, (S)-3-(1-(8-amino-1-methylimidazo[1,5-a]pyrazin-3-yl)ethyl)-5-chloro-N-(1-(ethoxymethyl)cyclopropyl)-6-fluoro-2-isopropoxybenzamide] | 6700 nM | 36000 nM | 1.8 nM | < 4.30 | –
4 | CCCNC(=O)c1c(F)c(Cl)cc([C@H](C)c2nc(C)c3c(N)nccn23)c1OC(C)C [Compound 41, (S)-3-(1-(8-amino-1-methylimidazo[1,5-a]pyrazin-3-yl)ethyl)-5-chloro-6-fluoro-2-isopropoxy-N-propylbenzamide] | 5500 nM | 20000 nM | 0.99 nM | 5.31 | –
5 | (S)-3-(1-(8-amino-1-methylimidazol[1,5-a]pyrazin-3-yl)ethyl)-5-chloro-6-fluoro-2-isopropoxy-N-(4-methoxyphenyl)benzamide [Compound 29] | 2100 nM | 11000 nM | 1.1 nM | – | 9900 nM
6 | Cc1nc([C@@H](C)c2cc(Cl)c(F)c(C(=O)NC[C@H]3CCOC3)c2OC(C)C)n2ccnc(N)c12 [Compound 34, 3-((S)-1-(8-amino-1-methylimidazo[1,5-a]pyrazin-3-yl)ethyl)-5-chloro-6-fluoro-2-isopropoxy-N-(((R)-tetrahydrofuran-3-yl)methyl)benzamide] | 3200 nM | 36000 nM | 1.4 nM | 4.96 | –
7 | Cc1nc(C(C)c2cc(Cl)c(F)c(C(=O)N3CC(C(=O)O)C3)c2OC(C)C)n2ccnc(N)c12 (stereo not shown) [Compound 1, 1-(3-(1-(8-amino-1-methylimidazo[1,5-a]pyrazin-3-yl)ethyl)-5-chloro-6-fluoro-2-isopropoxybenzoyl)azetidine-3-carboxylic acid] | 9800 nM | > 50000 nM | 9.7 nM | < 4.30 | –
8 | Cc1nc([C@@H](C)c2cc(Cl)c(F)c(C(=O)N[C@H]3CCC[C@H]3O)c2OC(C)C)n2ccnc(N)c12 [Compound 25, 3-((S)-1-(8-amino-1-methylimidazo[1,5-a]pyrazin-3-yl)ethyl)-5-chloro-6-fluoro-N-((1S,2R)-2-hydroxycyclopentyl)-2-isopropoxybenzamide] | 6000 nM | 24000 nM | 1.9 nM | 5.06 | –
9 | Cc1nc([C@@H](C)c2cc(Cl)c(F)c(C(=O)N[C@@H]3CCCOC3)c2OC(C)C)n2ccnc(N)c12 [Compound 44, 3-((S)-1-(8-amino-1-methylimidazo[1,5-a]pyrazin-3-yl)ethyl)-5-chloro-6-fluoro-2-isopropoxy-N-((R)-tetrahydro-2H-pyran-3-yl)benzamide] | 5000 nM | 20000 nM | 0.74 nM | 4.52 | –
10 | Cc1nc(C(C)c2cc(Cl)c(F)c(C(=O)N3CC[C@H](O)C3)c2OC(C)C)n2ccnc(N)c12 (stereo partly drawn) [Compound 6, (3-(1-(8-amino-1-methylimidazo[1,5-a]pyrazin-3-yl)ethyl)-5-chloro-6-fluoro-2-isopropoxyphenyl)((S)-3-hydroxypyrrolidin-1-yl)methanone] | 17000 nM | > 50000 nM | 2.9 nM | < 4.30 | –

Continued by falling IC50 [1], values first:

Row | IC50 [1] | IC50 [2] | IC50 [3] | pIC50 [4] | Compound | IC50 ([4]; recombinant enzyme, 2 hrs kinase reaction, IC50 (nM) or max inhibition (%) at 0.5 μM)
11 | 9200 nM | 43000 nM | 2.9 nM | 4.74 | Cc1nc(C(C)c2cc(Cl)c(F)c(C(=O)NC[C@@H](C)O)c2OC(C)C)n2ccnc(N)c12 (stereo partly drawn) [Compound 9, 3-(1-(8-amino-1-methylimidazo[1,5-a]pyrazin-3-yl)ethyl)-5-chloro-6-fluoro-N-((R)-2-hydroxypropyl)-2-isopropoxybenzamide] | –
12 | 9000 nM | 34000 nM | 3 nM | 4.66 | Cc1nc(C(C)c2cc(Cl)c(F)c(C(=O)NCC3(O)CC3)c2OC(C)C)n2ccnc(N)c12 (stereo not shown) [Compound 10, 3-(1-(8-amino-1-methylimidazo[1,5-a]pyrazin-3-yl)ethyl)-5-chloro-6-fluoro-N-((1-hydroxycyclopropyl)methyl)-2-isopropoxybenzamide] | –
13 | 5800 nM | 27000 nM | 2.5 nM | 4.59 | Cc1nc([C@@H](C)c2cc(Cl)c(F)c(C(=O)N[C@H]3CCCC[C@H]3O)c2OC(C)C)n2ccnc(N)c12 [Compound 47, 3-((S)-1-(8-amino-1-methylimidazo[1,5-a]pyrazin-3-yl)ethyl)-5-chloro-6-fluoro-N-((1S,2R)-2-hydroxycyclohexyl)-2-isopropoxybenzamide] | –
14 | 5200 nM | > 50000 nM | 2 nM | < 4.30 | CO[C@@H]1CCCN(C(=O)c2c(F)c(Cl)cc([C@H](C)c3nc(C)c4c(N)nccn34)c2OC(C)C)C1 [Compound 69, (3-((S)-1-(8-amino-1-methylimidazo[1,5-a]pyrazin-3-yl)ethyl)-5-chloro-6-fluoro-2-isopropoxyphenyl)((R)-3-methoxypiperidin-1-yl)methanone] | –
15 | 4900 nM | 18000 nM | 1.1 nM | 4.92 | Cc1nc([C@@H](C)c2cc(Cl)c(F)c(C(=O)NC[C@H](C)O)c2OC(C)C)n2ccnc(N)c12 [Compound 57, 3-((S)-1-(8-amino-1-methylimidazo[1,5-a]pyrazin-3-yl)ethyl)-5-chloro-6-fluoro-N-((S)-2-hydroxypropyl)-2-isopropoxybenzamide] | –
16 | 3900 nM | 33000 nM | 1.4 nM | 4.55 | Cc1nc([C@@H](C)c2cc(Cl)c(F)c(C(=O)N[C@@H](C)c3ccccc3)c2OC(C)C)n2ccnc(N)c12 [Compound 21, 3-((S)-1-(8-amino-1-methylimidazo[1,5-a]pyrazin-3-yl)ethyl)-5-chloro-6-fluoro-2-isopropoxy-N-((S)-1-phenylethyl)benzamide] | –
17 | 3400 nM | 21000 nM | 2.2 nM | < 4.30 | Cc1nc([C@@H](C)c2cc(Cl)c(F)c(C(=O)N3C[C@H](C)O[C@@H](C)C3)c2OC(C)C)n2ccnc(N)c12 [Compound 43, (3-((S)-1-(8-amino-1-methylimidazo[1,5-a]pyrazin-3-yl)ethyl)-5-chloro-6-fluoro-2-isopropoxyphenyl)((2S,6S)-2,6-dimethylmorpholino)methanone] | –
18 | 3400 nM | 14000 nM | 1.4 nM | 4.89 | Cc1nc([C@@H](C)c2cc(Cl)c(F)c(C(=O)N[C@H]3CC[C@H](O)C3)c2OC(C)C)n2ccnc(N)c12 [Compound 71, 3-((S)-1-(8-amino-1-methylimidazo[1,5-a]pyrazin-3-yl)ethyl)-5-chloro-6-fluoro-N-((1S,3S)-3-hydroxycyclopentyl)-2-isopropoxybenzamide] | –
19 | 3200 nM | 6100 nM | 1.4 nM | 4.60 | Cc1nc([C@@H](C)c2cc(Cl)c(F)c(C(=O)N[C@]3(C)C[C@H](O)C3)c2OC(C)C)n2ccnc(N)c12 [Compound 38, 3-((S)-1-(8-amino-1-methylimidazo[1,5-a]pyrazin-3-yl)ethyl)-5-chloro-6-fluoro-2-isopropoxy-N-((1S,3R)-3-hydroxy-1-methylcyclobutyl)benzamide] | –
20 | 2200 nM | 13000 nM | 1.8 nM | 4.96 | Cc1nc([C@@H](C)c2cc(Cl)c(F)c(C(=O)NCC3(O)COC3)c2OC(C)C)n2ccnc(N)c12 [Compound 55, (S)-3-(1-(8-amino-1-methylimidazo[1,5-a]pyrazin-3-yl)ethyl)-5-chloro-6-fluoro-N-((3-hydroxyoxetan-3-yl)methyl)-2-isopropoxybenzamide] | –
21 | 2200 nM | 9300 nM | 1.3 nM | 4.89 | Cc1nc([C@@H](C)c2cc(Cl)c(F)c(C(=O)NCc3ccccn3)c2OC(C)C)n2ccnc(N)c12 [Compound 33, (S)-3-(1-(8-amino-1-methylimidazo[1,5-a]pyrazin-3-yl)ethyl)-5-chloro-6-fluoro-2-isopropoxy-N-(pyridin-2-ylmethyl)benzamide] | –
22 | 2100 nM | 9700 nM | 0.94 nM | 4.41 | Cc1nc([C@@H](C)c2cc(Cl)c(F)c(C(=O)N[C@H]3CCCC[C@@H]3O)c2OC(C)C)n2ccnc(N)c12 [Compound 46, 3((S)-1-(8-amino-1-methylimidazo[1,5-a]pyrazin-3-yl)ethyl)-5-chloro-6-fluoro-N-((1S,2S)-2-hydroxycyclohexyl)-2-isopropoxybenzamide] | –
